Experimental data as given in PubChem BioAssay (NCI).
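1) Cells in 96-well plates. 2) Compound, 48 h, 5 concentrations. 3) Linear interpolation between surrounding doses. 4) Unreached endpoint = highest concentration. GI50 marks 50% less growth. TGI: total growth inhibition.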

Assays:
Experiment in all cases: inhibition of tumour cell growth, NCI panel, 48 h
ACHN renal = test system: ACHN renal
MDA-MB-435 = test system: MDA-MB-435
NCI-H226 lung = test system: NCI-H226 lung
NCI-H522 lung = test system: NCI-H522 lung
U251 CNS = test system: U251 CNS
UO-31 renal = test system: UO-31 renal
BT-549 breast = test system: BT-549 breast
EKVX NSCLC = test system: EKVX NSCLC
MOLT-4 leukemia = test system: MOLT-4 leukemia
SNB-75 CNS = test system: SNB-75 CNS

Row | SMILES | TGI (ACHN renal) [µM] | TGI (MDA-MB-435) [µM] | TGI (NCI-H226 lung) [µM] | TGI (NCI-H522 lung) [µM] | TGI (U251 CNS) [µM] | TGI (UO-31 renal) [µM] | GI50 (BT-549 breast) [µM] | TGI (BT-549 breast) [µM] | GI50 (EKVX NSCLC) [µM] | TGI (EKVX NSCLC) [µM] | GI50 (MDA-MB-435) [µM] | GI50 (MOLT-4 leukemia) [µM] | TGI (MOLT-4 leukemia) [µM] | GI50 (NCI-H522 lung) [µM] | GI50 (SNB-75 CNS) [µM] | TGI (SNB-75 CNS) [µM] | GI50 (ACHN renal) [µM] | GI50 (NCI-H226 lung) [µM] | GI50 (U251 CNS) [µM] | GI50 (UO-31 renal) [µM]
1 | O=C(NC(=S)NC(=O)c1cc(O)c(O)c(O)c1)c1cc(O)c(O)c(O)c1 | 44.9 | 24.7 | > 100 | 70.3 | 84.9 | 44.1 |  |  |  |  |  |  |  |  |  |  |  |  |  | 
2 | COc1ccc2c(OCc3nnc4ccc(-c5ccccc5)nn34)ccnc2c1 |  | > 100 |  | > 43.8 |  |  | > 100 | > 100 | > 100 | > 100 | > 100 | > 100 | > 100 | 20.1 | > 100 | > 100 |  |  |  | 
3 | CN(C)c1cccc(NC2=NCCO2)c1 | > 100 | 42.9 | > 100 | > 100 | > 100 | > 100 |  |  |  | > 100 |  |  | > 100 |  |  | > 100 |  |  |  | 
4 | CN(C)/N=C1\CC(c2ccccc2)C(C#N)(C#N)C1(C#N)C#N (stereo not given) | 34.8 | 81.8 | 84.7 | 35.3 | > 100 | 34.4 |  |  |  | > 100 |  |  | 56.5 |  |  | 33.9 |  |  |  | 
5 | C=CCOCn1cc(C)c(=O)[nH]c1=O | > 100 | > 100 | > 100 | 50.2 |  | > 100 |  | > 100 |  | > 100 |  |  | > 100 |  |  | > 100 |  |  |  | 
6 | CC(=O)N1CCn2c1nc1cc(Cl)ccc12 | > 100 | > 100 | > 100 | > 100 | > 100 |  |  | > 100 |  | > 100 |  |  | > 100 |  |  |  |  |  |  | 
7 | CC(C)(C)N(Cc1ccc2c(c1)OCO2)C(=O)/C=C\Sc1ccccc1 | > 100 | > 100 | > 100 | 59 | > 100 | > 100 |  | > 100 |  | > 100 |  |  | > 100 |  |  |  |  |  |  | 
8 | CC(=O)[CH-]C(=O)c1ccccc1.CC(=O)[CH-]C(=O)c1ccccc1.C[C@]12CCC(=O)C=C1CC[C@@H]1C2CC[C@@]2(C)C1CC[C@]2(C)[O-].C[C@]12CCC(=O)C=C1CC[C@@H]1C2CC[C@@]2(C)C1CC[C@]2(C)[O-].Cl.[Ti+4] (stereo not given in full) | 87.8 |  | 56.1 | 35.7 | 54.2 | 85.3 |  |  | 17.3 | 44.7 |  | 12.5 | > 100 | 11.4 | 15.7 | 43.7 | 21.6 | 14.4 | 15.2 | 24.2
9 | C[C@H]1S[C@H](c2c(Cl)cccc2Cl)N2Cc3ccccc3N=C12 | 26.5 | > 100 |  |  | > 100 | 26.3 |  | > 100 |  | 23.4 |  |  | > 100 |  |  | 32.4 |  |  |  | 
10 | Cc1cc(=O)[nH]c(NN2C(Cl)C(=O)C2c2cccc(Cl)c2)n1 (stereo not given) | > 100 |  |  |  | > 100 | 87.6 |  |  |  | > 100 |  |  | 40.7 |  |  | 62.8 |  |  |  | 
11 | Nc1c(Cl)ncnc1NCCCNc1ncnc(Cl)c1N | > 100 |  | > 100 | > 100 | > 100 | > 100 |  |  |  | > 100 |  |  | > 100 |  |  |  |  |  |  | 
12 | COc1cccc(/C=N/[N-]C(N)=O)c1[O-].[Cu+2].[OH3+].c1ccc(-c2ccccn2)nc1 | 98.9 |  | 88.1 | 28.4 | 31.3 | > 100 |  |  |  | > 78.2 |  |  | > 100 |  |  | 33.9 |  |  |  | 
13 | O=C(NNc1ccccc1)/C(=C/c1ccc2c(c1)OCO2)NC(=O)c1ccccc1 | > 100 |  | > 100 | > 100 | > 100 | > 100 |  |  |  | > 100 |  |  | > 100 |  |  | > 100 |  |  |  | 
14 | O=C1Nc2ccccc2Nc2ccncc21 |  |  | > 100 | > 100 | > 100 | > 100 |  |  |  | > 100 |  |  | > 100 |  |  | > 100 |  |  |  | 
15 | CCc1ccccc1NNc1cc(=O)[nH]c(=O)[nH]1 | 32.7 | 34.1 | 35 |  | 31.2 | 31.1 |  | 41.4 |  | 33.9 |  |  | 85.7 |  |  | 40.5 |  |  |  | 
16 | CC(=O)NC(CC(C)C)C(=O)NC(Cc1ccccc1)C(=S)N1CCCC1 (stereo not given) | > 100 |  | > 100 | > 100 | > 100 | > 100 |  |  |  | > 100 |  |  | > 100 |  |  | > 100 |  |  |  | 
17 | CC(C)(C)OC(=O)NCCCCC(NC(=O)c1ccccc1)C(N)=O (stereo not given) | > 100 | > 100 |  | > 100 | > 100 | > 100 |  | > 100 |  | > 100 |  |  | > 100 |  |  | > 100 |  |  |  | 
18 | Fc1cccc(F)c1C1SCc2nc3ccc(Cl)cc3n21 (stereo not given) | > 100 | > 100 |  | > 100 | > 100 | > 100 |  | > 100 |  | > 100 |  |  | > 100 |  |  | > 100 |  |  |  | 
19 | COc1ccc2oc(=O)c(-c3csc(C)n3)cc2c1 | > 100 | > 100 | 89.1 |  | 60.9 | > 100 |  | 29.2 |  | > 100 |  |  | > 100 |  |  | 55.6 |  |  |  | 
20 | O=P(O)(O)C1(P(=O)(O)O)CC1 | > 100 |  | > 100 | > 100 | > 100 | > 100 |  |  |  | > 100 |  |  | > 100 |  |  | > 100 |  |  |  | 
21 | Clc1ccc(OCc2nn3c(CCc4nnc5sc(COc6ccc(Cl)cc6)nn45)nnc3s2)cc1 | 41 | > 100 | > 100 | 30.1 | 54.6 | 3.03 |  |  |  | > 100 |  |  | > 100 |  |  |  |  |  |  | 
22 | CCOC(=O)C1=COC(C)(CCc2ccccc2)CC1=O (stereo not given) | > 100 | > 100 |  | 89.8 | > 100 | > 100 |  | > 100 |  | > 100 |  |  | > 100 |  |  | > 100 |  |  |  | 
23 | CCOc1cc(NC(C)=O)ccc1C(=O)NN1C(=O)CSC1c1ccccc1 (stereo not given) | > 100 | > 100 | > 100 | > 100 |  | > 100 |  | > 100 |  | > 100 |  |  | 58.2 |  |  | > 100 |  |  |  | 
